Source: article PMC5218480 (PLoS ONE, 2017)

System: MV-4-11 cells
Assay: Gene expression microarray analysis (Affymetrix PrimeView) and GSEA
Type: cell-based, human
Set-up: RFU PODN (11730768_x_at) / Fold change /veh PODN (11730768_x_at) / RFU LINC00158 (11744669_a_at) / Fold change /veh LINC00158 (11744669_a_at) / RFU DUSP10 (11751237_a_at) / Fold change /veh DUSP10 (11751237_a_at) / RFU ID3 (11757404_x_at) / Fold change /veh ID3 (11757404_x_at) / RFU PLEKHG5 (11737974_s_at) / Fold change /veh PLEKHG5 (11737974_s_at) / RFU LRRC4B (11730491_at) / Fold change /veh LRRC4B (11730491_at) / RFU GIMAP4 (11747438_a_at) / Fold change /veh GIMAP4 (11747438_a_at) / RFU KRT8 (11758183_x_at) / Fold change /veh KRT8 (11758183_x_at) / RFU CNN1 (11734310_a_at) / Fold change /veh CNN1 (11734310_a_at) / RFU VPS37D (11726825_at) / Fold change /veh VPS37D (11726825_at) / RFU C10orf10 (11716522_x_at) / Fold change /veh C10orf10 (11716522_x_at) / RFU KIR2DL2 /// KIR2DL4 /// KIR2DL5A /// KIR2DL5B /// KIR2DS1 /// KIR2DS2 /// KIR2DS3 /// KIR2DS4 /// KIR3DL3 /// KIR3DL3 /// KIR3DS1 (11738374_at) / Fold change /veh KIR2DL2 /// KIR2DL4 /// KIR2DL5A /// KIR2DL5B /// KIR2DS1 /// KIR2DS2 /// KIR2DS3 /// KIR2DS4 /// KIR3DL3 /// KIR3DL3 /// KIR3DS1 (11738374_at) / RFU C1QL1 (11718748_at) / Fold change /veh C1QL1 (11718748_at) / RFU TMPRSS4 (11747572_a_at) / Fold change /veh TMPRSS4 (11747572_a_at) / RFU HAMP (11756126_x_at) / Fold change /veh HAMP (11756126_x_at) / RFU RNFT2 (11725882_a_at) / Fold change /veh RNFT2 (11725882_a_at) / RFU NR4A2 (11747474_a_at) / Fold change /veh NR4A2 (11747474_a_at) / RFU ABCC12 (11746883_a_at) / Fold change /veh ABCC12 (11746883_a_at) / RFU TMEM136 (11760407_x_at) / Fold change /veh TMEM136 (11760407_x_at) / RFU CLDN22 /// WWC2 (11732394_at) / Fold change /veh CLDN22 /// WWC2 (11732394_at) / RFU HLA-DPB1 (11760878_x_at) / Fold change /veh HLA-DPB1 (11760878_x_at) / RFU SPINT1 (11716480_a_at) / Fold change /veh SPINT1 (11716480_a_at) / RFU GAP43 (11754022_s_at) / Fold change /veh GAP43 (11754022_s_at) / RFU A4GNT (11735810_at) / Fold change /veh A4GNT (11735810_at) / RFU PRB3 (11715151_x_at) / Fold change /veh PRB3 (11715151_x_at) / RFU TUBB4B (11761932_at) / Fold change /veh TUBB4B (11761932_at) / RFU CAPN14 (11732068_a_at) / Fold change /veh CAPN14 (11732068_a_at) / RFU TMCC2 (11721928_a_at) / Fold change /veh TMCC2 (11721928_a_at) / RFU IRGQ (11745062_a_at) / Fold change /veh IRGQ (11745062_a_at) / RFU FAM174B (11720279_a_at) / Fold change /veh FAM174B (11720279_a_at) / RFU TMPRSS4 (11748680_a_at) / Fold change /veh TMPRSS4 (11748680_a_at) / RFU FAM212B (11763350_a_at) / Fold change /veh FAM212B (11763350_a_at) / RFU PLEKHG5 (11743358_a_at) / Fold change /veh PLEKHG5 (11743358_a_at) / RFU ZSCAN30 (11745921_a_at) / Fold change /veh ZSCAN30 (11745921_a_at) / RFU CMKLR1 (11741424_a_at) / Fold change /veh CMKLR1 (11741424_a_at) / RFU LOC101060620 /// MAPK8IP1 (11723275_at) / Fold change /veh LOC101060620 /// MAPK8IP1 (11723275_at) / RFU SPTSSB (11747773_x_at) / Fold change /veh SPTSSB (11747773_x_at) / RFU PRSS12 (11739890_at) / Fold change /veh PRSS12 (11739890_at) / RFU BIN1 (11741810_x_at) / Fold change /veh BIN1 (11741810_x_at) / RFU WNT11 (11732464_a_at) / Fold change /veh WNT11 (11732464_a_at) / RFU C10orf10 (11716521_a_at) / Fold change /veh C10orf10 (11716521_a_at) / RFU C5orf56 (11738089_at) / Fold change /veh C5orf56 (11738089_at) / RFU CYB561 (11721691_x_at) / Fold change /veh CYB561 (11721691_x_at) / RFU ANKRD19P (11752326_a_at) / Fold change /veh ANKRD19P (11752326_a_at) / RFU OR2T12 /// OR2T33 /// OR2T8 (11738714_s_at) / Fold change /veh OR2T12 /// OR2T33 /// OR2T8 (11738714_s_at) / RFU VCAN (11748164_a_at) / Fold change /veh VCAN (11748164_a_at) / RFU JSRP1 (11732532_at) / Fold change /veh JSRP1 (11732532_at) / RFU KRTAP10-11 (11738290_x_at) / Fold change /veh KRTAP10-11 (11738290_x_at) / RFU MYO3A (11730013_a_at) / Fold change /veh MYO3A (11730013_a_at) / RFU EBF3 (11725865_a_at) / Fold change /veh EBF3 (11725865_a_at) / RFU CAMK2N1 (11719241_x_at) / Fold change /veh CAMK2N1 (11719241_x_at) / RFU C5orf56 (11738088_a_at) / Fold change /veh C5orf56 (11738088_a_at) / RFU OLFML3 (11715873_a_at) / Fold change /veh OLFML3 (11715873_a_at) / RFU LOC100653217 /// NTM (11731650_a_at) / Fold change /veh LOC100653217 /// NTM (11731650_a_at) / RFU MAPK11 (11762145_a_at) / Fold change /veh MAPK11 (11762145_a_at) / RFU FIZ1 (11724087_x_at) / Fold change /veh FIZ1 (11724087_x_at) / RFU OASL (11726364_x_at) / Fold change /veh OASL (11726364_x_at) / RFU SOX15 (11748057_x_at) / Fold change /veh SOX15 (11748057_x_at) / RFU CD79A (11719716_a_at) / Fold change /veh CD79A (11719716_a_at) / RFU HIST1H1D (11736915_at) / Fold change /veh HIST1H1D (11736915_at) / RFU CASKIN2 (11723855_a_at) / Fold change /veh CASKIN2 (11723855_a_at) / RFU LOC730098 (11760151_x_at) / Fold change /veh LOC730098 (11760151_x_at) / RFU OR4N2 (11742367_at) / Fold change /veh OR4N2 (11742367_at) / RFU PRRT2 (11749266_a_at) / Fold change /veh PRRT2 (11749266_a_at) / RFU SNX32 (11753110_a_at) / Fold change /veh SNX32 (11753110_a_at) / RFU CDHR5 (11726645_a_at) / Fold change /veh CDHR5 (11726645_a_at) / RFU RCAN1 (11760418_a_at) / Fold change /veh RCAN1 (11760418_a_at) / RFU FAM167A (11723789_a_at) / Fold change /veh FAM167A (11723789_a_at) / RFU FAM26E (11764081_at) / Fold change /veh FAM26E (11764081_at) / RFU ISYNA1 (11749810_s_at) / Fold change /veh ISYNA1 (11749810_s_at) / RFU ACY1 (11761880_at) / Fold change /veh ACY1 (11761880_at) / RFU 11764098_at / Fold change /veh 11764098_at / RFU SAMD14 (11745864_x_at) / Fold change /veh SAMD14 (11745864_x_at) / RFU NPB (11741838_a_at) / Fold change /veh NPB (11741838_a_at) / RFU TMPRSS6 (11731388_a_at) / Fold change /veh TMPRSS6 (11731388_a_at) / RFU KRTAP10-2 (11738614_at) / Fold change /veh KRTAP10-2 (11738614_at) / RFU ARHGAP8 /// PRR5-ARHGAP8 (11727945_x_at) / Fold change /veh ARHGAP8 /// PRR5-ARHGAP8 (11727945_x_at) / RFU KRTAP5-7 /// NADSYN1 (11734609_at) / Fold change /veh KRTAP5-7 /// NADSYN1 (11734609_at) / RFU RASL12 (11751679_a_at) / Fold change /veh RASL12 (11751679_a_at) / RFU CDKN2B (11736163_a_at) / Fold change /veh CDKN2B (11736163_a_at) / RFU PRF1 (11729649_at) / Fold change /veh PRF1 (11729649_at) / RFU, ZNF638 /// ZNF638-IT1 / Fold change vs veh, ZNF638 /// ZNF638-IT1 / RFU, PANK3 / Fold change vs veh, PANK3 / RFU, SH3YL1 / Fold change vs veh, SH3YL1 / RFU, ZEB2 / Fold change vs veh, ZEB2 / RFU, NRIP1 / Fold change vs veh, NRIP1 / RFU, PTTG1IP / Fold change vs veh, PTTG1IP / RFU, CAPN2 / Fold change vs veh, CAPN2 / RFU, MED14 / Fold change vs veh, MED14 / RFU, SNORA58 / Fold change vs veh, SNORA58 / RFU, C1orf63 / Fold change vs veh, C1orf63 / RFU, LRRFIP1 / Fold change vs veh, LRRFIP1 / RFU, NDUFAF7 / Fold change vs veh, NDUFAF7 / RFU, SLC12A2 / Fold change vs veh, SLC12A2 / RFU, IBTK / Fold change vs veh, IBTK / RFU, ESF1 / Fold change vs veh, ESF1 / Fold change vs veh, TMEM50B / RFU, TAOK1 / Fold change vs veh, TAOK1 / RFU, ACBD3 / Fold change vs veh, ACBD3 / RFU, TMA16 / Fold change vs veh, TMA16 / RFU, RWDD3 / Fold change vs veh, RWDD3 / RFU, BCAT1 / Fold change vs veh, BCAT1 / RFU, EDEM3 / Fold change vs veh, EDEM3 / RFU, TMEM33 / Fold change vs veh, TMEM33 / RFU, WDR75 / Fold change vs veh, WDR75 / RFU, AHCTF1 / Fold change vs veh, AHCTF1 / RFU, TFRC / Fold change vs veh, TFRC / RFU, ZDHHC17 / Fold change vs veh, ZDHHC17 / RFU, NOM1 / Fold change vs veh, NOM1 / RFU, ARL8B / Fold change vs veh, ARL8B / RFU, ZBTB11 / Fold change vs veh, ZBTB11 / RFU, TAMM41 / Fold change vs veh, TAMM41 / RFU, KIAA1704 /// LOC100996395 / Fold change vs veh, KIAA1704 /// LOC100996395 / RFU, ING1 / Fold change vs veh, ING1 / RFU, TRMT61B / Fold change vs veh, TRMT61B / RFU, FUBP3 / Fold change vs veh, FUBP3 / RFU, TP53 / Fold change vs veh, TP53 / RFU, TNKS2 / Fold change vs veh, TNKS2 / RFU, ZFP14 / Fold change vs veh, ZFP14 / RFU, ACTR2 / Fold change vs veh, ACTR2 / RFU, PPP3R1 / Fold change vs veh, PPP3R1 / RFU, PIK3R1 / Fold change vs veh, PIK3R1 / RFU, HNRNPA1 / Fold change vs veh, HNRNPA1 / RFU, RNF170 / Fold change vs veh, RNF170 / RFU, ZNF28 / Fold change vs veh, ZNF28 / RFU, RNGTT / Fold change vs veh, RNGTT / RFU, OGT / Fold change vs veh, OGT / RFU, BRD1 / Fold change vs veh, BRD1 / RFU, MARS / Fold change vs veh, MARS / RFU, ZNF655 / Fold change vs veh, ZNF655 / RFU, FAHD1 / Fold change vs veh, FAHD1 / RFU, BDP1 / Fold change vs veh, BDP1 / RFU, LRRCC1 / Fold change vs veh, LRRCC1 / RFU, ARID1A / Fold change vs veh, ARID1A / RFU, ZNF146 / Fold change vs veh, ZNF146 / RFU, ZNF330 / Fold change vs veh, ZNF330 / RFU, GPN3 / Fold change vs veh, GPN3 / RFU, C9orf123 / Fold change vs veh, C9orf123 / RFU, N4BP2L2 / Fold change vs veh, N4BP2L2 / RFU, ARFIP1 / Fold change vs veh, ARFIP1 / RFU, FAM179B / Fold change vs veh, FAM179B / RFU, BCL10 / Fold change vs veh, BCL10 / RFU, UHRF1BP1L / Fold change vs veh, UHRF1BP1L / RFU, BET1 / Fold change vs veh, BET1 / RFU, CNOT2 / Fold change vs veh, CNOT2 / RFU, ZNF268 / Fold change vs veh, ZNF268 / Fold change vs veh, ZNF507 / RFU, DGCR2 / Fold change vs veh, DGCR2 / RFU, WDSUB1 / Fold change vs veh, WDSUB1 / Fold change vs veh, HSP90B1 /// MIR3652 / RFU, ADSS / Fold change vs veh, ADSS / RFU, GK / Fold change vs veh, GK / RFU, ZNF148 / Fold change vs veh, ZNF148 / RFU, TAF9 / Fold change vs veh, TAF9 / RFU, SLC1A5 / Fold change vs veh, SLC1A5 / RFU, SLMO2 / Fold change vs veh, SLMO2 / RFU, ABCC4 / Fold change vs veh, ABCC4 / RFU, LOC101060439 /// RAP1B / Fold change vs veh, LOC101060439 /// RAP1B / RFU, RFX7 / Fold change vs veh, RFX7 / RFU, GTPBP10 / Fold change vs veh, GTPBP10 / RFU, CNEP1R1 / Fold change vs veh, CNEP1R1 / RFU, BIVM-ERCC5 /// ERCC5 / Fold change vs veh, BIVM-ERCC5 /// ERCC5 / RFU, ILF3 / Fold change vs veh, ILF3 / RFU 11762660_at / Fold change /veh 11762660_at / RFU VCAN (11757783_s_at) / Fold change /veh VCAN (11757783_s_at) / RFU DDX43 (11728927_at) / Fold change /veh DDX43 (11728927_at) / RFU KRT8 (11758188_x_at) / Fold change /veh KRT8 (11758188_x_at) / RFU NKD1 (11759106_at) / Fold change /veh NKD1 (11759106_at) / RFU SRD5A1 (11742802_a_at) / Fold change /veh SRD5A1 (11742802_a_at) / RFU TPSAB1 /// TPSB2 (11721975_s_at) / Fold change /veh TPSAB1 /// TPSB2 (11721975_s_at) / RFU GSTM3 (11746129_a_at) / Fold change /veh GSTM3 (11746129_a_at) / RFU IL23R (11737362_x_at) / Fold change /veh IL23R (11737362_x_at) / RFU TMEM51 (11727254_a_at) / Fold change /veh TMEM51 (11727254_a_at) / RFU PIWIL2 (11732686_x_at) / Fold change /veh PIWIL2 (11732686_x_at) / RFU ORM1 (11744905_x_at) / Fold change /veh ORM1 (11744905_x_at) / RFU CCDC152 (11743942_at) / Fold change /veh CCDC152 (11743942_at) / RFU ECM1 (11717891_a_at) / Fold change /veh ECM1 (11717891_a_at) / RFU IL23R (11748794_a_at) / Fold change /veh IL23R (11748794_a_at) / RFU TNFAIP8L3 (11732012_x_at) / Fold change /veh TNFAIP8L3 (11732012_x_at) / RFU MBOAT4 (11741988_at) / Fold change /veh MBOAT4 (11741988_at) / RFU 11764193_at / Fold change /veh 11764193_at / RFU TMEM53 (11763286_at) / Fold change /veh TMEM53 (11763286_at) / RFU MAGEB2 (11727129_at) / Fold change /veh MAGEB2 (11727129_at) / RFU TMEM200A (11744735_a_at) / Fold change /veh TMEM200A (11744735_a_at) / RFU CCDC152 (11751479_a_at) / Fold change /veh CCDC152 (11751479_a_at) / RFU FAM211A (11726209_a_at) / Fold change /veh FAM211A (11726209_a_at) / RFU RGS16 (11746705_a_at) / Fold change /veh RGS16 (11746705_a_at) / RFU VCAN (11755009_s_at) / Fold change /veh VCAN (11755009_s_at) / RFU RHOB (11743442_s_at) / Fold change /veh RHOB (11743442_s_at) / RFU RGS16 (11720943_a_at) / Fold change /veh RGS16 (11720943_a_at) / RFU RGS16 (11720944_at) / Fold change /veh RGS16 (11720944_at) / RFU, VPS4B / Fold change vs veh, VPS4B / RFU, CREB1 / Fold change vs veh, CREB1 / RFU, DNAJC13 / Fold change vs veh, DNAJC13 / RFU, GNAQ / Fold change vs veh, GNAQ / RFU, CDK5R1 / Fold change vs veh, CDK5R1 / RFU, ZRANB3 / Fold change vs veh, ZRANB3 / RFU, CUL4A / Fold change vs veh, CUL4A / RFU, CCNY / Fold change vs veh, CCNY / RFU, UFL1 / Fold change vs veh, UFL1 / RFU, COG3 / Fold change vs veh, COG3 / RFU, DIAPH2 / Fold change vs veh, DIAPH2 / RFU, SKA2 / Fold change vs veh, SKA2 / RFU, AFF3 / Fold change vs veh, AFF3 / RFU, LMF1 / Fold change vs veh, LMF1 / RFU, IPO11 / Fold change vs veh, IPO11 / RFU, DFFB / Fold change vs veh, DFFB / RFU, FOXP1 / Fold change vs veh, FOXP1 / RFU, CARD8 / Fold change vs veh, CARD8 / RFU, STRN3 / Fold change vs veh, STRN3 / RFU, ADK / Fold change vs veh, ADK / RFU, RASSF2 / Fold change vs veh, RASSF2 / RFU, WIPF1 / Fold change vs veh, WIPF1 / RFU, LARP1B / Fold change vs veh, LARP1B / RFU, RASA1 / Fold change vs veh, RASA1 / RFU, RB1 / Fold change vs veh, RB1 / RFU, PPFIA1 / Fold change vs veh, PPFIA1 / RFU, MAT2A / Fold change vs veh, MAT2A / RFU, CCT5 / Fold change vs veh, CCT5 / RFU, WDR92 / Fold change vs veh, WDR92 / RFU, CUX1 / Fold change vs veh, CUX1 / RFU, TTC7A / Fold change vs veh, TTC7A / RFU, TMEM135 / Fold change vs veh, TMEM135 / RFU, DEPTOR / Fold change vs veh, DEPTOR / RFU, CPM / Fold change vs veh, CPM / RFU, DNAJB6 / Fold change vs veh, DNAJB6 / RFU, CACNA2D3 / Fold change vs veh, CACNA2D3 / RFU, DTX4 / Fold change vs veh, DTX4 / RFU, TFCP2 / Fold change vs veh, TFCP2 / RFU, GMCL1 /// GMCL1P1 / Fold change vs veh, GMCL1 /// GMCL1P1 / RFU, AEBP2 / Fold change vs veh, AEBP2 / RFU, SNHG1 /// SNORD22 /// SNORD25 /// SNORD26 /// SNORD27 /// SNORD28 /// SNORD29 /// SNORD31 / Fold change vs veh, SNHG1 /// SNORD22 /// SNORD25 /// SNORD26 /// SNORD27 /// SNORD28 /// SNORD29 /// SNORD31 / Fold change (Aza/veh), C12orf56 (ProbeSet 11735607_a_at) / Fold change (ACY-1035/veh), C12orf56 (ProbeSet 11735607_a_at) / Fold change (Aza/veh), FGFR1OP (ProbeSet 11751329_s_at) / Fold change (ACY-1035/veh), FGFR1OP (ProbeSet 11751329_s_at) / Fold change (Aza/veh), VPS36 (ProbeSet 11739960_a_at) / Fold change (ACY-1035/veh), VPS36 (ProbeSet 11739960_a_at) / RFU SYPL1 (11715823_x_at) / Fold change /veh SYPL1 (11715823_x_at) / RFU IGFBP7 (11715501_s_at) / Fold change /veh IGFBP7 (11715501_s_at) / RFU REEP3 (11722064_at) / Fold change /veh REEP3 (11722064_at) / RFU IGLL1 (11728026_x_at) / Fold change /veh IGLL1 (11728026_x_at): dose or concentration left out as unconfirmed
Conditions: MV-4-11 cells, 48 hours

Q: Which “RFU ISYNA1 (11749810_s_at)” value does the source give for Nc1ncn([C@@H]2O[C@H](CO)[C@@H](O)[C@H]2O)c(=O)n1 [azacitidine] here?
A: 23.56 RFU
